18 compounds from patent publication US8129371B2, “Thienopyrimidine and pyrazolopyrimidine compounds and their use as mTOR kinase and PI3 kinase inhibitors” (Wyeth LLC, priority 2007, dated 2012) can be followed below.

The target of test [1] is T1, Human mTOR (FLAG-TOR) (Homo sapiens, UniProt P42345).
T1 construct: FLAG
Put plainly: Human mTOR kinase assay with purified enzyme, DELFIA format. Type of test: biochemical. An outline of the steps: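 DELFIA readout: Eu-anti-P(T389)-S6K antibody (40 ng/mL, 1 h) on captured His6-S6K from the stopped reaction. Kinase step used purified FLAG-tagged human mTOR with test compound in HEPES (pH 7.4)/MnCl2/DTT buffer, 2 h at room temperature (linear 1–6 h), terminated by EDTA/EGTA.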

Test [2] has as its target T2, PI3K (Homo sapiens, UniProt P48736).
T2 construct: PI3 Kinase γ IC50; other: PI3 Kinase γ; other: PI3 Kinase γ isoform, fluorescence polarization
The test is described as follows: Fluorescence polarization assay for PI3K. Type of test: biochemical. The note with it: PI3 Kinase γ; read-out: PI3 Kinase γ IC50. An outline of the steps: (§1)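 Fluorescence-polarization competition readout: after 30–60 min of PIP2/ATP turnover in 1% DMSO, a stop mix with GST-GRP (70 nM) and red probe (10 nM) was added.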

Test [3] concerns the target T3, PI3K (Homo sapiens, UniProt P42336).
T3 construct: PI3 Kinase α IC50; other: PI3 Kinase α; other: PI3 Kinase α isoform, fluorescence polarization
The test is described as follows: Fluorescence polarization assay for PI3K. The class given is biochemical. The note with it: PI3 Kinase α; read-out: PI3 Kinase α IC50. In outline: as §1

The test system of test [4] is breast line MDA468. The test is described as follows: In vitro cell culture growth assay (MTS), MDA468. Type of test: cell-based. The note with it: Homo sapiens, 72 h, MDA468 cells, three days after drug treatment. In outline: (§2)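 Following a one-day attachment period, cells received inhibitors for 3 days. MTS metabolism by viable cells was quantified at 490 nm absorbance and converted to percent of same-plate vehicle control growth.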

Test [5] concerns prostate line LNCap. The test is described as follows: In vitro cell culture growth assay (MTS), LNCap. The class given is cell-based. The note with it: Homo sapiens, LNCaP, 72 h, LNCap cells, three days after drug treatment. In outline: as §2

T2 sequence (P48736 whole entry, canonical isoform): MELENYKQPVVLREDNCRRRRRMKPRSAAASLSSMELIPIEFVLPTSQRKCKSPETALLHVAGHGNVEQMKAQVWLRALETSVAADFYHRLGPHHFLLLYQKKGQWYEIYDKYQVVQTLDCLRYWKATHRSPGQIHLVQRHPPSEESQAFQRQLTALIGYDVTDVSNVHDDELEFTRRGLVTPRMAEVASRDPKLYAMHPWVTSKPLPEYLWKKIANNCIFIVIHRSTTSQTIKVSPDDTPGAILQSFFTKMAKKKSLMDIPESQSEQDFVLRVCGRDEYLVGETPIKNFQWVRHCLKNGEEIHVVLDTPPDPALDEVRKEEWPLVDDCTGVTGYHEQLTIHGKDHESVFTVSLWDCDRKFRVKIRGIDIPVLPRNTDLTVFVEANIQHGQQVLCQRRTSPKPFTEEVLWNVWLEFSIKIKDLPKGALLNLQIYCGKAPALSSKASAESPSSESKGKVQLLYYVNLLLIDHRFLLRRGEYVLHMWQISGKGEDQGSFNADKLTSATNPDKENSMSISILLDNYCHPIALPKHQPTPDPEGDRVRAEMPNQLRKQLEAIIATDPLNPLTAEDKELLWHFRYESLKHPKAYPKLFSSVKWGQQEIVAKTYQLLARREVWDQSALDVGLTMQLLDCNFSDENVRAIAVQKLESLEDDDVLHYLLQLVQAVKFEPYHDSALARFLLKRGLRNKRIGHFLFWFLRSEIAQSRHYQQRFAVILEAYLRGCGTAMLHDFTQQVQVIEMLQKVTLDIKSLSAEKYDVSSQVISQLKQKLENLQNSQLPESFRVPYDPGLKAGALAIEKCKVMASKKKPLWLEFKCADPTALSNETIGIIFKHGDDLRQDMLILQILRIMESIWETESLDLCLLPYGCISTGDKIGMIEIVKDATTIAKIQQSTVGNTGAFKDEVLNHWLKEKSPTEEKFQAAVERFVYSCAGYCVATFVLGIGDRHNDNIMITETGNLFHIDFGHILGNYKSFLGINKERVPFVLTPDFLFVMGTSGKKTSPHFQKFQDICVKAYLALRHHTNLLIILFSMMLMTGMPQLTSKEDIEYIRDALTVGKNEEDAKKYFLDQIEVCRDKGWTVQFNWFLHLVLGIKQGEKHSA
T3 sequence (P42336 whole entry, canonical isoform): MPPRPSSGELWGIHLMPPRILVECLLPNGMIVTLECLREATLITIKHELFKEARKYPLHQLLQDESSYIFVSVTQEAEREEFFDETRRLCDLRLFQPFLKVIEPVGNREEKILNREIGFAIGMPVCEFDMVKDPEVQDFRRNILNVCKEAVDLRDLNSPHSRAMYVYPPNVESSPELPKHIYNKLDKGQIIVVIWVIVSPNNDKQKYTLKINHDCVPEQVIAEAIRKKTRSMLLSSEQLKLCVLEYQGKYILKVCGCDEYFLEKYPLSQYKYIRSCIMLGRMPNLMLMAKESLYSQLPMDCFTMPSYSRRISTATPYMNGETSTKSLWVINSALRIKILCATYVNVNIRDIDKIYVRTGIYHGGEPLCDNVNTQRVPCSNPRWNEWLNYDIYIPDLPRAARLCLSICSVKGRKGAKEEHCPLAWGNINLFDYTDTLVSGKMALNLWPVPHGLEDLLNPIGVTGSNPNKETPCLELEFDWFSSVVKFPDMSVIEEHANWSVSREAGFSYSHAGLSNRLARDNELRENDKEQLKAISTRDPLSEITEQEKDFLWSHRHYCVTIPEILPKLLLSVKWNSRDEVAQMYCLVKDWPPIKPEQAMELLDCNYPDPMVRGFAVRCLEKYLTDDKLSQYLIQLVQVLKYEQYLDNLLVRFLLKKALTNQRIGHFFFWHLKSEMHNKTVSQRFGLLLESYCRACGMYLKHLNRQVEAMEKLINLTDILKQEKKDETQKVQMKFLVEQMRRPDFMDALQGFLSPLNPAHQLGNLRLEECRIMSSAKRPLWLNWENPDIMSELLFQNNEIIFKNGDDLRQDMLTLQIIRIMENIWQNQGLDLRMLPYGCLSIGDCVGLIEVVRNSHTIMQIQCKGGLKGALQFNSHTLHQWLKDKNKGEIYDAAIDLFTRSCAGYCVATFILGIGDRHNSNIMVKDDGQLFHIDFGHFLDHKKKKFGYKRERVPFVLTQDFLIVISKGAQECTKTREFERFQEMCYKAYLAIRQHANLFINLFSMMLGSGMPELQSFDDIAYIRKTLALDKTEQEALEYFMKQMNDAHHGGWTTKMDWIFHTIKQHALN

Consider `CN(C)CCCNC(=O)Nc1ccc(-c2nc(N3CC4CCC(C3)O4)c3cnn(C)c3n2)cc1` [Example 59, 1-[3-(dimethylamino)propyl]-3-{4-[1-methyl-4-(8-oxa-3-azabicyclo[3.2.1]oct-3-yl)-1H-pyrazolo[3,4-d]pyrimidin-6-yl]phenyl}urea], for which the IC50 in test [1] is 100 nM; in test [2] it was greater than 10000 nM; in test [3], 1700 nM; in test [4], 8800 nM; in test [5], 2900 nM.
As to `COC(=O)Nc1ccc(-c2nc(N3CC4CCC(C3)O4)c3cnn(C)c3n2)cc1` [Example 60, methyl {4-[1-methyl-4-(8-oxa-3-azabicyclo[3.2.1]oct-3-yl)-1H-pyrazolo[3,4-d]pyrimidin-6-yl]phenyl}carbamate], the concentration for half-maximal inhibition (IC50) in test [1] was 28 nM; in test [2] it was greater than 10000 nM; in test [3] it was 3320 nM; in test [4], 6800 nM; in test [5], 1050 nM.
On to `Cn1ncc2c(N3CC4CCC(C3)O4)nc(-c3cccc(O)c3)nc21` [Example 61, 3-[1-methyl-4-(8-oxa-3-azabicyclo[3.2.1]oct-3-yl)-1H-pyrazolo[3,4-d]pyrimidin-6-yl]phenol], for which the half-maximal inhibitory concentration (IC50) was 90 nM in test [1]; 1840 nM in test [2]; 903 nM in test [3]; 7600 nM in test [4]; 1800 nM in test [5].
With `CC(C)OC(=O)N1CCC(n2ncc3c(N4CC5CCC(C4)O5)nc(-c4ccc(N)cc4)nc32)CC1` [Example 65, isopropyl 4-[6-(4-aminophenyl)-4-(8-oxa-3-azabicyclo[3.2.1]oct-3-yl)-1H-pyrazolo[3,4-d]pyrimidin-1-yl]piperidine-1-carboxylate], the 50% inhibitory concentration (IC50) was 46 nM in test [1]; greater than 10000 nM in test [2]; 4630 nM in test [3]; 7000 nM in test [4]; 1200 nM in test [5].
On to `CNC(=O)Nc1ccc(-c2nc(N3CC4CCC(C3)O4)c3cnn(C4CCN(C(=O)OC(C)C)CC4)c3n2)cc1` [Example 66, isopropyl 4-[6-{4-[(methylcarbamoyl)amino]phenyl}-4-(8-oxa-3-azabicyclo[3.2.1]oct-3-yl)-1H-pyrazolo[3,4-d]pyrimidin-1-yl]piperidine-1-carboxylate], for which the IC50 is 0.22 nM in test [1]; greater than 10000 nM in test [2]; 2020 nM in test [3]; 84 nM in test [4]; 6 nM in test [5].
The matching figures for `CCNC(=O)Nc1ccc(-c2nc(N3CC4CCC(C3)O4)c3cnn(C4CCN(C(=O)OC(C)C)CC4)c3n2)cc1` [Example 67, isopropyl 4-[6-{4-[(ethylcarbamoyl)amino]phenyl}-4-(8-oxa-3-azabicyclo[3.2.1]oct-3-yl)-1H-pyrazolo[3,4-d]pyrimidin-1-yl]piperidine-1-carboxylate]: 0.23 nM, 9500 nM, 2460 nM, 150 nM and 17 nM.
On to `CC(C)OC(=O)N1CCC(n2ncc3c(N4CC5CCC(C4)O5)nc(-c4ccc(NC(=O)NCCF)cc4)nc32)CC1` [Example 68, isopropyl 4-[6-(4-{[(2-fluoroethyl)carbamoyl]amino}phenyl)-4-(8-oxa-3-azabicyclo[3.2.1]oct-3-yl)-1H-pyrazolo[3,4-d]pyrimidin-1-yl]piperidine-1-carboxylate], for which the concentration for half-maximal inhibition (IC50) in test [1] is 0.27 nM; in test [2] it was greater than 10000 nM; in test [3], 3150 nM; in test [4], 180 nM; in test [5] it was 18 nM.
As for `CC(C)OC(=O)N1CCC(n2ncc3c(N4CC5CCC(C4)O5)nc(-c4ccc(NC(=O)NCCO)cc4)nc32)CC1` [Example 69, isopropyl 4-[6-(4-{[(2-hydroxyethyl)carbamoyl]amino}phenyl)-4-(8-oxa-3-azabicyclo[3.2.1]oct-3-yl)-1H-pyrazolo[3,4-d]pyrimidin-1-yl]piperidine-1-carboxylate], the concentration for half-maximal inhibition (IC50) in test [1] turned out to be 0.17 nM; in test [2], 11000 nM; in test [3], 1530 nM; in test [4], 195 nM; in test [5], 100 nM.
Turning to `CC(C)OC(=O)N1CCC(n2ncc3c(N4CC5CCC(C4)O5)nc(-c4ccc(NC(=O)NC5CC5)cc4)nc32)CC1` [Example 70, isopropyl 4-[6-{4-[(cyclopropylcarbamoyl)amino]phenyl}-4-(8-oxa-3-azabicyclo[3.2.1]oct-3-yl)-1H-pyrazolo[3,4-d]pyrimidin-1-yl]piperidine-1-carboxylate], the IC50 in test [1] came out at 0.44 nM; in test [2], 9500 nM; in test [3] it was 924 nM; in test [4] it was 140 nM; in test [5] it was 3 nM.
The matching figures for `CC(C)OC(=O)N1CCC(n2ncc3c(N4CC5CCC(C4)O5)nc(-c4ccc(NC(=O)Nc5ccccc5)cc4)nc32)CC1` [Example 71, isopropyl 4-[4-(8-oxa-3-azabicyclo[3.2.1]oct-3-yl)-6-{4-[(phenylcarbamoyl)amino]phenyl}-1H-pyrazolo[3,4-d]pyrimidin-1-yl]piperidine-1-carboxylate]: 0.62 nM, 4910 nM, 594 nM, 170 nM and 20 nM.
`CC(C)OC(=O)N1CCC(n2ncc3c(N4CC5CCC(C4)O5)nc(-c4ccc(NC(=O)Nc5cccnc5)cc4)nc32)CC1` [Example 72, isopropyl 4-[4-(8-oxa-3-azabicyclo[3.2.1]oct-3-yl)-6-{4-[(pyridin-3-ylcarbamoyl)amino]phenyl}-1H-pyrazolo[3,4-d]pyrimidin-1-yl]piperidine-1-carboxylate]: the IC50 in test [1] was 0.2 nM; in test [2] it was 2690 nM; in test [3] it was 324 nM; in test [4], 36 nM; in test [5], 1.7 nM.
Regarding `CC(C)OC(=O)N1CCC(n2ncc3c(N4CC5CCC(C4)O5)nc(-c4ccc(NC(=O)Nc5ccncc5)cc4)nc32)CC1` [Example 73, isopropyl 4-[4-(8-oxa-3-azabicyclo[3.2.1]oct-3-yl)-6-{4-[(pyridin-4-ylcarbamoyl)amino]phenyl}-1H-pyrazolo[3,4-d]pyrimidin-1-yl]piperidine-1-carboxylate], the IC50 in test [1] was determined as 0.23 nM; in test [2] it was 672 nM; in test [3], 460 nM; in test [4], 9 nM; in test [5], 0.9 nM.
In the case of `COC(=O)Nc1ccc(-c2nc(N3CC4CCC(C3)O4)c3cnn(C4CCN(C(=O)OC(C)C)CC4)c3n2)cc1` [Example 74, isopropyl 4-[6-{4-[(methoxycarbonyl)amino]phenyl}-4-(8-oxa-3-azabicyclo[3.2.1]oct-3-yl)-1H-pyrazolo[3,4-d]pyrimidin-1-yl]piperidine-1-carboxylate], the IC50 in test [1] amounted to 4.5 nM; in test [2], 9500 nM; in test [3] it was 4480 nM; in test [4] it was 6000 nM; in test [5], 200 nM.
As for `CCn1ncc2c(N3CC4CCC(C3)O4)nc(-c3cccc(O)c3)nc21` [Example 75, 3-[1-ethyl-4-(8-oxa-3-azabicyclo[3.2.1]oct-3-yl)-1H-pyrazolo[3,4-d]pyrimidin-6-yl]phenol], the IC50 in test [1] is 27 nM; in test [2], greater than 10000 nM; in test [3], 1060 nM; in test [4], 1300 nM; in test [5], 350 nM.
`CCn1ncc2c(N3CC4CCC(C3)O4)nc(-c3ccc4[nH]ccc4c3)nc21` [Example 76, 1-ethyl-6-(1H-indol-5-yl)-4-(8-oxa-3-azabicyclo[3.2.1]oct-3-yl)-1H-pyrazolo[3,4-d]pyrimidine]: the IC50 was 29 nM in test [1]; greater than 10000 nM in test [2]; 6690 nM in test [3]; 7000 nM in test [4]; 1700 nM in test [5].
As for `CNC(=O)Nc1ccc(-c2nc(N3CC4CCC(C3)O4)c3cnn(Cc4ccccc4)c3n2)cc1` [Example 77, 1-{4-[1-benzyl-4-(8-oxa-3-azabicyclo[3.2.1]oct-3-yl)-1H-pyrazolo[3,4-d]pyrimidin-6-yl]phenyl}-3-methylurea], the half-maximal inhibitory concentration (IC50) is 2.2 nM in test [1]; greater than 10000 nM in test [2]; 2100 nM in test [3]; 700 nM in test [4]; 120 nM in test [5].
On to `CCNC(=O)Nc1ccc(-c2nc(N3CC4CCC(C3)O4)c3cnn(Cc4ccccc4)c3n2)cc1` [Example 78, 1-{4-[1-benzyl-4-(8-oxa-3-azabicyclo[3.2.1]oct-3-yl)-1H-pyrazolo[3,4-d]pyrimidin-6-yl]phenyl}-3-ethylurea], for which the IC50 was 2.6 nM in test [1]; greater than 10000 nM in test [2]; greater than 10000 nM in test [3]; 1050 nM in test [4]; 170 nM in test [5].
As for `O=C(Nc1ccncc1)Nc1ccc(-c2nc(N3CC4CCC(C3)O4)c3cnn(Cc4ccccc4)c3n2)cc1` [Example 79, 1-{4-[1-benzyl-4-(8-oxa-3-azabicyclo[3.2.1]oct-3-yl)-1H-pyrazolo[3,4-d]pyrimidin-6-yl]phenyl}-3-pyridin-4-ylurea], the IC50 in test [1] was 1.9 nM; in test [2], greater than 10000 nM; in test [3] it was 1980 nM; in test [4] it was 150 nM; in test [5] it was 20 nM.
